Where two headings read alike, the source gives them in different places. Where no end group is shown, it is not given here.

The subject of data set [1] is C. albicans SC5314 strain. On the procedure:
In vitro activity of N10K against C. albicans SC5314 strain. The candidacidal activity of N10K peptide against C. albicans was assessed by a conventional colony forming unit (CFU) assay as previously described (Polonelli et al., 2003; Manfredi et al., 2005). Briefly, cells of C. albicans SC5314 were incubated at 37° C. for 6 hours (hr) in the presence of N10K at the concentration indicated of 20, 12.5 or 6.25 microgram/ml, or in distilled water as control (C). After incubation, cell suspensions were plated on Sabouraud dextrose agar and incubated at 30° C. for 48 hours when CFU were counted (** P<0.01 for N10K treated versus untreated cells, by t test). […]
The alanine-substituted derivatives (asd), defined according to the position held by the alanine-substituted aminoacid, were tested against C. albicans by a conventional colony forming unit (CFU) as previously described (Polonelli et al., 2003). Briefly, cells of C. albicans SC5314 were incubated at 37° C. for 6 hours in the presence of N10K or N10K asd at different scalar concentrations or distilled water as control. After incubation, cell suspensions were plated on Sabouraud dextrose agar and incubated at 30° C. for 48 hours when CFU were counted. Based on several independent replications, the EC50 value of each peptide was calculated by nonlinear regression analysis using Graph Pad Prism 4.01 software, San Diego, Calif., USA. […]
In vitro microbicidal activity of N10K derivative with 2 amino acid substitutions, or 80% sequence identity with native N10K, namely peptide Seq Id. No. 25 was tested against Candida albicans SC5314 as determined by Colony Forming Unit assay.

For a further data set, the system named is PBMC. The data set can be described thus: AlamarBlue cell viability assay on PBMC. Particulars: 1-20 micrograms/ml concentration range, 24 hours. On the procedure: In vitro activity of N10K against HIV-1. PBMC from healthy donors were cultured at the concentration of 2×10^6 cells/ml in 96 wells plates with RPMI 1640 supplemented with 10% FBS, 1% glutamine and 20 UI/ml rIL-2 for 24 hr before treatment with N10K, then the peptide was added at increasing concentrations (1, 10 and 20 micrograms/ml) for 24 hours. AlamarBlue was added (10% v/v) and incubated for 4 hours at 37° C. Cells viability was determined by the AlamarBlue Assay (Biosource International, Inc.). The absorbance was measured with an ELISA plate reader (Tecan Sunrise Absorbance Reader) at the double wavelength of 570/595 nm. AlamarBlue added to the complete RPMI1640 medium was used as blank. […] To verify the anti-HIV-1 activity, an in vitro infection applying two different experimental approaches was performed. PBMC from 3 healthy donors were purified by Ficoll gradient centrifugation, mixed in pool and cultured in RPMI 1640 medium (10% FBS, 1% glutamine and 1% penicillin streptomycin). Before infection cells were stimulated for 24 hours with PHA (5 micrograms/ml) and after with rIL-2 (20 UI/ml). […] Viral replication was evaluated measuring the concentration of the p24 antigen in the culture supernatants by the HIV p24 ELISA Ultrasensitive detection kit (PerkinElmer, Inc.). […]

The test system of data set [2] is B16F10-Nex2 melanoma cells. The data set can be described thus: melanoma cell viability by Trypan Blue exclusion. The following applies: 1 mM to 0.05 mM, 12 hr. As to the method:
In vitro activity of N10K against B16F10-Nex2, SKme128 and SKme125 melanoma cells. Peptide N10K and the relative scramble peptide (SP) used as negative control were diluted from 1 mM to 0.05 mM in RPMI with 10% FCS and incubated with B16F10-Nex2, SKme128 and SKme125 cells (5×10^3 cells/well) in 100 microliters per well for 12 hr at 37° C. Each peptide was tested in triplicate. After 12 hr, the cytotoxic activities of the peptides were determined by measuring cell viability by Trypan Blue exclusion. A 50% inhibition of cell growth was taken as a comparative index of cytotoxicity (EC50).
In vitro activity of T11F against B16F10-Nex2, SKme128 and SKme125 melanoma cells. Peptide T11F and the relative scramble peptide (SP) used as negative control were diluted from 1 mM to 0.05 mM in RPMI with 10% FCS and incubated with B16F10-Nex2, SKme128 and SKme125 cells (5×10^3 cells/well) in 100 microL per well for 12 hr at 37 u° C. Each peptide was tested in triplicate. After 12 hr, the cytotoxic activities of the peptides were determined by measuring cell viability by Trypan Blue exclusion. A 50% inhibition of cell growth was taken as a comparative index of cytotoxicity (EC50).

Data set [3] deals with C. neoformans 6995 strain. The following applies: 6 hours 37° C.; multiple experiments.
Description: After the incubation period, the cell suspensions have been plated on Sabouraud dextrose agar, then incubated at 30° C. and observed for CFU enumeration after 48 hours.
The next data set has as its system U937 cell line. The data set can be described thus: annexine-V/propidium iodide flow cytometry on U937. The following applies: annexine-V/propidium iodide staining.

Take “NQVSLTCLVK [Peptide N10K, N Q V S L T C L V K]”: the EC50 – broadly, the concentration that produces a half-maximal response – in data set [1] (6 hours 37° C., several independent replications, peptide batches of Examples I and II) was determined as 10 µM; in data set [1] (SC5314, 6 h), 1 µM; in data set [3] it was 5.16 µM. In addition, the “cytotoxicity for PBMC (cell viability)” value in the data set with PBMC is “not to be cytotoxic”. Also, the “cytotoxic activity (cell viability)” value in data set [2] is on record as “showed activity”. The “induction of apoptotic/necrotic effects” value in the data set on U937 cell line is recorded as “exclude the induction of apoptotic/necrotic effects”.
